Molecules are shown by their SMILES.

Assay type in all cases: in vivo
The test system of one experiment is Laodelphax striatellus. As to the kind of experiment: Pesticidal test against Laodelphax striatellus (rice seedling spray). As to conditions: 144 h, concentration 100 ppm, 3-stage larvae, examined after 6 days, 25° C., read-out: pesticidal rate. In outline: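 Rice seedlings sprayed with 2.5 ml acetone solution of compound at a predetermined concentration, air-dried, then infested with third-stage Laodelphax striatellus larvae in capped water-containing tubes at 25 °C. Living and dead insects counted after 6 days; ten larvae per group, two replicates.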

The subject of another experiment is Coptotermes formosanus. As to the kind of experiment: Pesticidal test against Coptotermes formosanus (treated filter paper). As to conditions: 120 h, concentration 30 ppm, examined after 5 days of treatment, 28° C., read-out: pesticidal rate. The method, then:
Pesticidal Test against Coptotermes formosanus
20 μl of an acetone solution in which a test compound had been prepared at a predetermined concentration was added dropwise to the filter paper having a diameter of […] included in a polypropylene cup, and air-dried, and then 20 μl of water was added thereto. Coptotermes formosanus was released and the cup was capped. They were left to stand in a thermostatic chamber at 28° C., and the numbers of the living pests and the dead pests were examined after 5 days of treatment. The test was carried out with ten larvae per group in two replicates.

Another experiment has as its system Musca domestica. As to the kind of experiment: Pesticidal test against Musca domestica (petri dish dry film). As to conditions: 24 h, concentration 100 ppm, female adults, examined after 1 day, 25° C., read-out: pesticidal rate. The method, boiled down:
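Dry film from 1 ml acetone solution of compound at a predetermined concentration, air-dried in a 9 cm petri dish; female adult flies released and dish capped. Held at 25° C; living and dead counted after 1 day. Five insects per group, two replicates.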

In another experiment the test system is Choristoneura magnanima. As to the kind of experiment: Pesticidal test against Choristoneura magnanima (artificial feed dip). As to conditions: 144 h, 2-stage larvae, examined after 6 days, 25° C., read-out: pesticidal rate; for pest or weed control at 10 ppm: concentration 10 ppm; for pest or weed control at 1 ppm: concentration 1 ppm. In outline: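 Thin artificial feed slices dipped 30 s in compound solution at a set concentration, air-dried, then offered to 2nd-stage larvae held at 25° C. Living and dead larvae counted after 6 days; five larvae per group, two replicates.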

Another experiment concerns Adoxophyes honmai. As to the kind of experiment: Pesticidal test against Adoxophyes honmai (artificial feed dip). As to conditions: 144 h, 2-stage larvae, examined after 6 days, 25° C., read-out: pesticidal rate; for pest or weed control at 1 ppm: concentration 1 ppm; for pest or weed control at 10 ppm: concentration 10 ppm. In outline:
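Thin artificial feed slices dipped 30 s in test solution at a predetermined concentration, air-dried, then offered to 2nd-stage larvae. Kept at 25° C; live and dead larvae counted after 6 days. Five larvae per group, two replicates.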

The subject of the next experiment is Spodoptera litura. As to the kind of experiment: Pesticidal test against Spodoptera litura (cabbage leaf dip). The following applies: foliar, 144 h, concentration 1 ppm, 2-stage larvae, examined after 6 days, 25° C., read-out: pesticidal rate. In outline: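 Cabbage leaf pieces dipped 30 seconds in compound solution at a predetermined concentration and air-dried, then offered to second-stage larvae, five per group in two replicates. Held at 25° C. Living and dead larvae counted after 6 days.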

In another experiment the test system is Plutella xylostella. As to the kind of experiment: Pesticidal test against Plutella xylostella (cabbage leaf dip). As to conditions: foliar, 144 h, concentration 1 ppm, 2-stage larvae, examined after 6 days, 25° C., read-out: pesticidal rate. The method, boiled down:
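Cabbage leaf pieces dipped 30 s in test solution at a predetermined concentration, air-dried, then offered to 2nd-instar larvae, five per group in duplicate. Held at 25° C; living and dead larvae counted after 6 days.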

A further experiment concerns Helicoverpa armigera. As to the kind of experiment: Pesticidal test against Helicoverpa armigera (cabbage leaf disk dip). As to conditions: foliar, 72 h, concentration 1 ppm, 2-stage larvae, examined after 3 days, 25° C., read-out: pesticidal rate. The method, boiled down:
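Cabbage leaf disks were dipped for 30 s in test solution at a set concentration and air-dried. Second-instar larvae were placed one per hole and held at 25 °C, with live and dead counts taken after 3 days. Five larvae per group were tested in two replicates.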

A further experiment has as its system Blattella germanica. As to the kind of experiment: Pesticidal test against Blattella germanica (petri dish dry film). The following applies: 24 h, concentration 100 ppm, female adults, examined after 1 day, 25° C., read-out: pesticidal rate. The method, boiled down:
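Acetone solution of test compound at a predetermined concentration dried as a film in a 9 cm petri dish; female adult cockroaches released onto it and kept at 25° C. Living and dead counted after 1 day; five insects per group, two replicates.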

A further experiment relates to Ctenocephalides Felis. Nature of the experiment: Insecticidal test for Ctenocephalides felis, Test Example 1 (dry film in glass tube, 0.5 ml, Table A4). As to conditions: Ctenocephalides felis, adults, after 24 hours of the exposure, in triplicate, read-out: death rate; for pest or weed control at 0.1 µg/mL: concentration 0.1 μg/ml; for pest or weed control at 1 µg/mL: concentration 1.0 μg/ml. The protocol:
Insecticidal Test for Ctenocephalides Felis
0.5 ml of a solution of acetone, the active ingredient, prepared to the prescribed concentration was added dropwise to a glass tube with a flat bottom (internal diameter: 2.6 cm, bottom area: 5.3 cm^2, height: 12 cm), and the solvent was evaporated at room temperature to form a dry film of the agent on the bottom surface. About 10 adults of Ctenocephalides Felis per glass tube were added, and the adults were contact-exposed to the test compound. After 24 hours of the exposure, the conditions of the adults were examined and classified into “alive” and “dead (including a moribund condition)” to determine the death rate (in triplicate).
As the comparative compounds, the following Compounds (A), (B), and (C) disclosed in WO2009/080203, and fipronil were used.

The subject of another experiment is Rhipicephalus sanguineus. As to the kind of experiment: Insecticidal test for Rhipicephalus sanguineus (treated glass petri dish, Table A6). The following applies: adults of Rhipicephalus sanguineus, 18 hour exposure, examined after 48 hours, in single. The protocol: Insecticidal Test for Rhipicephalus sanguineus
0.5 ml of a solution of acetone, the active ingredient, prepared to the prescribed dose was added dropwise into a glass petri dish with a diameter of 10 cm, and the acetone was evaporated at room temperature. About 10 adults of Rhipicephalus sanguineus per dish were added, and the dish was covered by another glass petri dish that was treated with the active ingredient in the same manner described above. After 18 hour exposure to the test substance, the adults were transferred into a glass petri dish that was not treated with the active ingredient. After 48 hours of the exposure, the conditions of the adults were examined and classified into “alive” and “dead (including a moribund condition)” to determine the death rate (in single).
As the comparative compounds, said Compounds (B), (C), and (D), and the following Compound (F) disclosed in WO2009/080203, and fipronil were used.

Take `O=C(Nc1c(I)cc(C(F)(C(F)(F)F)C(F)(F)F)cc1C(F)(F)F)c1cccc(NC(=O)c2cccnc2Cl)c1` [6-460, 2-chloro-N-(3-(2-iodo-4-(perfluoropropan-2-yl)-6-(trifluoromethyl)phenylcarbamoyl)phenyl)nicotinamide]: the pest or weed control at 100 ppm with Laodelphax striatellus and with Musca domestica was no less than 70% throughout. In the experiment on Coptotermes formosanus, the pest or weed control at 30 ppm is no less than 70%. The pest or weed control at 10 ppm in the experiment with Choristoneura magnanima was no less than 70%. For the same compound, the pest or weed control at 1 ppm in the experiment with Adoxophyes honmai, in the experiment with Spodoptera litura, with Plutella xylostella and in the experiment with Helicoverpa armigera was no less than 70% each time.

For the compound `O=C(Nc1cccc(C(=O)Nc2c(I)cc(C(F)(C(F)(F)F)C(F)(F)F)cc2I)c1F)c1ccccc1` [6-1260, 3-benzamide-N-(2,6-diiodo-4-(perfluoropropan-2-yl)phenyl)-2-fluorobenzamide], the pest or weed control at 100 ppm with Laodelphax striatellus and in the experiment with Musca domestica was no less than 70% throughout. Also, the pest or weed control at 30 ppm with Coptotermes formosanus is no less than 70%. Moreover, the pest or weed control at 1 ppm in the experiment with Choristoneura magnanima, in the experiment on Adoxophyes honmai, with Spodoptera litura, with Plutella xylostella and with Helicoverpa armigera was no less than 70% throughout.

Regarding `O=C(Nc1cccc(C(=O)Nc2c(Br)cc(C(F)(C(F)(F)F)C(F)(F)C(F)(F)F)cc2C(F)(F)F)c1F)c1ccccc1` (stereo not drawn) [6-1652], the pest or weed control at 100 ppm with Laodelphax striatellus and in the experiment with Musca domestica was no less than 70% each time. The pest or weed control at 30 ppm in the experiment with Coptotermes formosanus was no less than 70%. The pest or weed control at 1 ppm in the experiment on Choristoneura magnanima, in the experiment with Adoxophyes honmai, with Spodoptera litura, in the experiment with Plutella xylostella and in the experiment with Helicoverpa armigera was no less than 70% each time.

Consider `O=C(Nc1cccc(C(=O)Nc2c(I)cc(C(F)(C(F)(F)F)C(F)(F)F)cc2C(F)(F)F)c1F)c1ccc(F)cc1` [6-1733, 2-fluoro-3-(4-fluorobenzamide)-N-(2-iodo-4-(heptafluoropropan-2-yl)-6-(trifluoromethyl)phenyl)benzamide], for which the pest or weed control at 100 ppm with Laodelphax striatellus, in the experiment on Musca domestica and in the experiment with Blattella germanica was no less than 70% each time. For the same compound, the pest or weed control at 1 ppm in the experiment on Choristoneura magnanima, in the experiment on Adoxophyes honmai, in the experiment on Spodoptera litura, in the experiment with Plutella xylostella and in the experiment with Helicoverpa armigera was no less than 70% in each case. In addition, the pest or weed control at 0.1 µg/mL in the experiment with Ctenocephalides Felis amounted to 70%.

Turning to `CN(C(=O)c1ccccc1)c1cccc(C(=O)Nc2c(Br)cc(C(F)(C(F)(F)F)C(F)(F)F)cc2C(F)(F)F)c1` [7-268], the pest or weed control at 100 ppm with Laodelphax striatellus, in the experiment on Musca domestica and in the experiment with Blattella germanica was no less than 70% throughout. Moreover, in the experiment with Coptotermes formosanus, the pest or weed control at 30 ppm is no less than 70%. Besides, the pest or weed control at 1 ppm in the experiment with Spodoptera litura and with Plutella xylostella was no less than 70% in each case.

As for `CN(C(=O)c1ccccc1)c1cccc(C(=O)Nc2c(I)cc(C(F)(C(F)(F)F)C(F)(F)F)cc2C(F)(F)F)c1` [7-424], the pest or weed control at 100 ppm with Laodelphax striatellus, with Musca domestica and in the experiment on Blattella germanica was no less than 70% each time. Moreover, the pest or weed control at 30 ppm with Coptotermes formosanus was no less than 70%. Further, the pest or weed control at 10 ppm in the experiment with Choristoneura magnanima and in the experiment on Adoxophyes honmai was no less than 70% throughout. The pest or weed control at 1 ppm in the experiment on Spodoptera litura, in the experiment on Plutella xylostella and in the experiment on Helicoverpa armigera was no less than 70% each time.

Regarding `CN(C(=O)c1ccc(F)cc1)c1cccc(C(=O)Nc2c(Br)cc(C(F)(C(F)(F)F)C(F)(F)F)cc2C(F)(F)F)c1F` [7-1577], the pest or weed control at 100 ppm in the experiment with Laodelphax striatellus, in the experiment with Musca domestica and with Blattella germanica was no less than 70% in each case. The pest or weed control at 30 ppm with Coptotermes formosanus is no less than 70%. For the same compound, the pest or weed control at 1 ppm in the experiment on Choristoneura magnanima, in the experiment on Spodoptera litura, in the experiment on Plutella xylostella and in the experiment on Helicoverpa armigera was no less than 70% in each case. Besides, the pest or weed control at 10 ppm with Adoxophyes honmai was no less than 70%.

For `CN(C(=O)c1ccccc1)c1cccc(C(=O)Nc2c(I)cc(C(F)(C(F)(F)F)C(F)(F)F)cc2C(F)(F)F)c1F` [7-1730], the pest or weed control at 100 ppm in the experiment with Laodelphax striatellus and in the experiment with Musca domestica was no less than 70% throughout. Moreover, the pest or weed control at 30 ppm with Coptotermes formosanus was no less than 70%. The pest or weed control at 1 ppm with Choristoneura magnanima, with Adoxophyes honmai, in the experiment on Spodoptera litura, in the experiment with Plutella xylostella and with Helicoverpa armigera was no less than 70% throughout.

On to `CN(C(=O)c1cccc(F)c1)c1cccc(C(=O)Nc2c(I)cc(C(F)(C(F)(F)F)C(F)(F)F)cc2C(F)(F)F)c1F` [7-1732, 2-fluoro-3-(3-fluoro-N-methylbenzamide)-N-(2-iodo-4-(heptafluoropropan-2-yl)-6-(trifluoromethyl)phenyl)benzamide], for which the pest or weed control at 100 ppm in the experiment on Laodelphax striatellus, in the experiment with Musca domestica and with Blattella germanica was no less than 70% throughout. Further, the pest or weed control at 30 ppm in the experiment on Coptotermes formosanus is no less than 70%. Further, the pest or weed control at 1 ppm in the experiment on Choristoneura magnanima, in the experiment with Adoxophyes honmai, with Spodoptera litura, in the experiment on Plutella xylostella and in the experiment with Helicoverpa armigera was no less than 70% each time. Moreover, in the experiment on Ctenocephalides Felis, the pest or weed control at 0.1 µg/mL stood at 76.7%.

For the compound `Cc1cc(C(F)(C(F)(F)F)C(F)(F)F)cc(C)c1NC(=O)c1cccc(NC(=O)c2cccnc2F)c1` [compound (A), reference compound], the pest or weed control at 1 µg/mL in the experiment with Ctenocephalides Felis is 0%.

Take `O=C(Nc1cccc(C(=O)Nc2c(I)cc(C(F)(C(F)(F)F)C(F)(F)F)cc2I)c1)c1ccccc1` [compound (B)]: the pest or weed control at 1 µg/mL with Ctenocephalides Felis turned out to be 3.2%. For the same compound, the figures for the death rate with Rhipicephalus sanguineus (0.673 mg/m^2), with Rhipicephalus sanguineus (2.69 mg/m^2) and in the experiment with Rhipicephalus sanguineus (10.8 mg/m^2) were 0.0%, 20.0% and 50.0%, respectively.

Turning to `O=C(Nc1cccc(C(=O)Nc2c(I)cc(C(F)(F)F)cc2C(F)(F)F)c1)c1ccccc1` [compound (C)], in the experiment on Ctenocephalides Felis, the pest or weed control at 1 µg/mL was determined as 0%. Also, the death rate in the experiment on Rhipicephalus sanguineus (0.673 mg/m^2) is 0.0%; in the experiment with Rhipicephalus sanguineus (2.69 mg/m^2) it was 11.1%; in the experiment on Rhipicephalus sanguineus (10.8 mg/m^2), 10.0%.

Values taken from patent US8686044B2, “Amide derivative, pest control agent containing the amide derivative, and use of the amide derivative” (Mitsui Chemicals Agro, Inc., priority 2008, dated 2014).
